# Like-named read-outs stand apart in the source and are kept apart here.
# Experiments:
# WT LRRK2 = biological target: T1, WT LRRK2 (Mus musculus, UniProt Q5S006); experiment: LRRK2 degradation in WT MEFs by Western blotting; type: cell-based
# T1 construct: endogenous in cells; host or cells: wild-type primary MEFs
# Description: (§1) These PROTACs were then biologically evaluated in mouse embryonic fibroblasts (MEFs) by Western blotting. Briefly, MEFs were treated with compounds at 33 nM and 1 μM for 4 h (Figure 2) and 24 h (Figure S2) separately, and the intracellular level of LRRK2, phosphorylated LRRK2 at Ser935, and phosphorylated Rab10 (pRab10) at Thr73 was determined. Rab10[5],[49] is one of the bona fide substrates of LRRK2, whose phosphorylation status is directly affected by the LRRK2 kinase activity and protein level. Phosphorylation of LRRK2 at Ser935 is a well-studied biomarker site used to assess the efficacy of type 1 LRRK2 inhibitors.[30]
# (§2) Primary MEFs were generated as described in a previous study.[80] Briefly, the uterine horn was collected from adult female mice at day E12.5 and transferred to a 10 cm tissue culture dish containing cold PBS. Two forceps were used to tear the yolk sacs to isolate each embryo. Forceps were cleaned thoroughly with 70% ethanol between each embryo isolation. The embryos were culled, and a tissue piece was collected in a polymerase chain reaction (PCR) tube for genotyping. The red tissue of the embryo was removed, and the remainder was minced with a scalpel blade and incubated with a 7.5 mL trypsin–ethylenediaminetetraacetic acid (EDTA) solution for 10 min in a 37 °C, 5% CO2 tissue culture incubator. The dish was removed from the incubator and checked under a light microscope for single cells. Complete media (7.5 mL) was added to the trypsinized cells, and the cell suspension was transferred to a 15 mL Falcon tube and centrifuged at 1200 rpm for 5 min at room temperature. The trypsin was aspirated, the cell pellet was resuspended in a 5 mL fresh complete media, and the cell suspension was plated in a 60 mm tissue culture dish and incubated in a 37 °C, 5% CO2 tissue culture incubator. The MEFs at this stage were considered as passage 0 and were passaged and expanded for experimental use once the genotype was confirmed by allelic sequencing and immunoblotting. MEFs were cultured in Dulbecco’s modified Eagle’s medium (DMEM) containing 10% (v/v) fetal bovine serum (FBS), 2 mM L-glutamine, 100 U/mL penicillin, and 100 μg/mL streptomycin supplemented with 1× nonessential amino acids and 1 mM sodium pyruvate.
# (§3) Culturing and passaging of adherent cell lines were carried out using an aseptic technique in CL1 or CL2 (for PBMC isolation) biological safety cabinets. All cells were incubated in a 37 °C incubator with 5% CO2. Cell lines were regularly tested for mycoplasma contamination. For Western blot assay, the cells were seeded in six-well plates. For immunoprecipitation of LRRK2, SH-SY5Y cells (cultured in DMEM-F12, supplemented with 15% (v/v) FBS, 100 U/mL penicillin and 100 μg/mL streptomycin, 1× nonessential amino acids, and 1 mM sodium pyruvate) were seeded in a 10 cm dish. All cells were treated with the indicated compounds such that the final concentration of DMSO was 0.1%. Following the treatment of cells with compounds at indicated concentrations and time periods, the media was removed and the cells were washed with PBS and lysed in a 100 μL ice-cold complete lysis buffer containing 50 mM tris–HCl pH 7.4, 1 mM EGTA, 10 mM 2-glycerophosphate, 50 mM sodium fluoride, 5 mM sodium pyrophosphate, 270 mM sucrose, supplemented with 1 μg/mL microcystin-LR, 1 mM sodium orthovanadate, complete EDTA-free protease inhibitor cocktail (Roche), and 1% (v/v) Triton X-100. The cells were immediately placed on ice and were scraped and collected into 1.5 mL Eppendorf tubes. Cell lysates were incubated on ice for 10 min prior to centrifugation at 15 000g at 4 °C for 15 min.
# G2019S LRRK2 = biological target: T2, G2019S LRRK2 (Mus musculus, UniProt Q5S006, G2019S); experiment: LRRK2 degradation in G2019S LRRK2 MEFs by Western blotting; type: cell-based; conditions: for Dmax: dose-dependent degradation
# T2 construct: endogenous in cells; host or cells: G2019S LRRK2 MEFs
# T2 sequence (Q5S006 whole entry G2019S): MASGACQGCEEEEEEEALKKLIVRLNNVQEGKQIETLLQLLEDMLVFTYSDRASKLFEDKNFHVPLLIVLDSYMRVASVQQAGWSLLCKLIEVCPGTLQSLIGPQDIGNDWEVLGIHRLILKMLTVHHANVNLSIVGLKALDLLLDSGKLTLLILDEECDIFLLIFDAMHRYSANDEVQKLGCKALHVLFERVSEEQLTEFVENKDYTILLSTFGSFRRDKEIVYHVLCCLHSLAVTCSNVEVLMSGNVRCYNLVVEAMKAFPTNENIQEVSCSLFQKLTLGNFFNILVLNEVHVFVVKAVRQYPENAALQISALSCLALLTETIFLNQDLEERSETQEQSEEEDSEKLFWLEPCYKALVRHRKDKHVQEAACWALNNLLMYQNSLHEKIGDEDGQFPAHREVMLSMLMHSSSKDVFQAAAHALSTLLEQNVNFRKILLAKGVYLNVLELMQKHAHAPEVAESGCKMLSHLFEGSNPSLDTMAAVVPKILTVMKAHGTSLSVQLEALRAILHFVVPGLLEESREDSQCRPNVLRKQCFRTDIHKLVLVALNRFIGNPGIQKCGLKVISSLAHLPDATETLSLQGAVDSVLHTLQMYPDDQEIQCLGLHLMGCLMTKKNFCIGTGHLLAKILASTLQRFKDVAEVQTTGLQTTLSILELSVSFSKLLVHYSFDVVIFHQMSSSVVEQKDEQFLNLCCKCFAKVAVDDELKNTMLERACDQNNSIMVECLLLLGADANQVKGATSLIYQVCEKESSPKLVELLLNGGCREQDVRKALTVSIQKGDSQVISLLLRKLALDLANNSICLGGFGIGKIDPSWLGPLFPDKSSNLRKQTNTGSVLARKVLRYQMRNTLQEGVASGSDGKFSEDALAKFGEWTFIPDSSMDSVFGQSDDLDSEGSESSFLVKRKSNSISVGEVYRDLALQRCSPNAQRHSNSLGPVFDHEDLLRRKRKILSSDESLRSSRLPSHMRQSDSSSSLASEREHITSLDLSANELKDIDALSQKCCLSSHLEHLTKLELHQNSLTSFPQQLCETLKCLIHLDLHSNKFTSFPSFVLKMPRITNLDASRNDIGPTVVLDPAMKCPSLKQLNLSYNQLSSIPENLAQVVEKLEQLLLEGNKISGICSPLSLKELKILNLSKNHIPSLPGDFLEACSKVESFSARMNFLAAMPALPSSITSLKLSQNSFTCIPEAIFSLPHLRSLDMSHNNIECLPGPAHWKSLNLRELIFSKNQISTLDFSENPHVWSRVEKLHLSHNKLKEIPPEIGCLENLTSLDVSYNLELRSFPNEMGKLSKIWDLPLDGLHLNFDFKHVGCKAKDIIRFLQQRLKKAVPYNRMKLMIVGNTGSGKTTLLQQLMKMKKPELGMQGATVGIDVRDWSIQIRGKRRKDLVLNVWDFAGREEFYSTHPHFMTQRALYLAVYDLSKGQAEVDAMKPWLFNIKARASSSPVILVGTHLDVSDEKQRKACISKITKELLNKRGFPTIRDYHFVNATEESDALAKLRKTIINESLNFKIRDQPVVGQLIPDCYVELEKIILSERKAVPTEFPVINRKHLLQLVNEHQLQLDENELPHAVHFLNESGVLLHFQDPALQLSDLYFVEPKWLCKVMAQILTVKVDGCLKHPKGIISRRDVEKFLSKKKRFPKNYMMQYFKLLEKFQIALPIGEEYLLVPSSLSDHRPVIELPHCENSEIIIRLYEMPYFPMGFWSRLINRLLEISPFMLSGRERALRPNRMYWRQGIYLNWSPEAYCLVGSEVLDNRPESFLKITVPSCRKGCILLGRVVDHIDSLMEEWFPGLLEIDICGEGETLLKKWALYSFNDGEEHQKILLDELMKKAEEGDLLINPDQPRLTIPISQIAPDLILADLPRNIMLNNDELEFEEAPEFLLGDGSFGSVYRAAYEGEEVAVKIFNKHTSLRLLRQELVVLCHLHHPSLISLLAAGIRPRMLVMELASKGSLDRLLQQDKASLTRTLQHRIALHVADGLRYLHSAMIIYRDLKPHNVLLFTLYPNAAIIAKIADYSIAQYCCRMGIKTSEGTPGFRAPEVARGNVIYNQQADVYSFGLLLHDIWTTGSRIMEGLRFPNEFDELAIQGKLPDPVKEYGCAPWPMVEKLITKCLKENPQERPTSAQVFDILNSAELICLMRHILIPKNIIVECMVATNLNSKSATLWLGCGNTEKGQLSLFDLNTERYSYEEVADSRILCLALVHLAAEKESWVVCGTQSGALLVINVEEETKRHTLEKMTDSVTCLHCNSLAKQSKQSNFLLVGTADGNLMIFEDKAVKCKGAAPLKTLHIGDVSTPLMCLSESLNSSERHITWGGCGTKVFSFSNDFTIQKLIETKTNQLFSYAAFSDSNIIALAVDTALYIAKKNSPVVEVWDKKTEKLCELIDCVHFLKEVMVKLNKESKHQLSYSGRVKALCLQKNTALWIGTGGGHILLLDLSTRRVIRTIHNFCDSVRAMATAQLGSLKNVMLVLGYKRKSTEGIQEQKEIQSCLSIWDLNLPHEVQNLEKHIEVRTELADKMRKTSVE
# Description: as §1, §2, §3
# Rab10-pThr73 = experiment: Rab10 dephosphorylation in WT MEFs by Western blotting; type: cell-based, mouse
# Description: as §1, §2, §3
# [1] = biological target: T3, LRRK2-NanoLuc with VCB protein (Homo sapiens, UniProt P40337+Q5S007); experiment: NanoBRET-based ternary binding and cooperativity assay; conditions: for IC50: compound preincubated with VCB, lysate of HEK293 cells, LRRK2 tracer; for cooperativity (α): IC50 ratio without/with VCB
# T3 construct: host or cells: HEK293 (digitonin-permeabilized), recombinant VCB added
# Description: (A). Schematic illustration of the binary and ternary LRRK2 engagement assays. […] The fractional occupancy of the tracer is plotted against the concentrations of the compounds and fitted into the “nonlinear regression, one site-log IC50” model in GraphPad to obtain the IC50 values. The IC50 ratio between the blue curve and red cure is calculated as cooperativity (α). […] The NanoBRET signal was plotted against the compounds’ concentrations and fitted into “nonlinear regression, Gaussian” model in GraphPad. Error bars are mean ± SEM from three biological independent experiments.
# Titration of PROTACs to the lysed cells and LRRK2 tracer in the presence or absence of recombinant VCB protein (VHL complexed with elongin B–elongin C) gives ternary and binary binding affinities of PROTACs for LRRK2, respectively. Similarly, the ternary complex formation assay also used LRRK2-NanoLuc transiently expressed in HEK293 as the BRET donor, but the acceptor was recombinant VCB protein labeled with BODIPY^576/589via the NHS ester-activated cross-linking reaction. PROTACs that can bridge LRRK2 and VCB together will produce a BRET signal (Figure 10E).
# The HEK293 cells were transfected with the LRRK2-NanoLuc fusion vector (Promega, NV3401) following Promega’s protocol and seeded into a white 384-well plate (Corning3570) at a density of 6000 cells/well. The cells were then treated with 50 μg/mL of digitonin, 125 nM of LRRK2 tracer, testing compounds at decreasing concentrations (11 concentrations with a 2-fold serial dilution starting from 10 μM) or testing compounds and VCB mix (11 concentrations with a 2-fold serial dilution starting from 10 μM compound). The first six concentrations of VCB start from 32 μM with a 2-fold dilution, while the last five concentrations of VCB were kept fixed at 1 μM. The NanoBRET NanoGlo Substrate (Promega, N157C) was added at concentrations recommended by the manufacturer’s protocol. In the maximum signal control samples (DMSO control), DMSO was added instead of testing compounds. In the minimum signal control samples (no tracer control), DMSO and LRRK2 tracer dilution buffer were used to replace testing compounds and LRRK2 tracer separately. The filtered luminescence was measured within 10 min following the addition of the substrate on a PHERAstar (BMG LABTECH) plate reader equipped with a 450 nm bandpass filter (donor) and a 600 nm long-pass filter (acceptor). The fractional occupancy was calculated according to the equation: fractional occupancy = (mBRETtesting compound – mBRETno tracer control)/(mBRETDMSO control – mBRETno tracer control).
# T1 sequence (Q5S006 whole entry): as the sequence (Q5S006 whole entry G2019S) above, with S2019G counted along it
compound,measurement,setting,value
CNc1nc(Nc2ccc(C(=O)N3CCN(CCOCCOCCSC(C)(C)[C@H](NC(=O)C4(F)CC4)C(=O)N4C[C@H](O)C[C@H]4C(=O)NCc4ccc(-c5scnc5C)cc4)CC3)cc2OC)ncc1Cl [SD75],Dmax at 1 µM,"WT LRRK2; 1 μM (1000 nM), read-out: Dmax (WT LRRK2), time-dependent degradation",52%
same,Dmax,"WT LRRK2; dose-dependent degradation, 24 h",51%
same,Dmax at 1 µM,"G2019S LRRK2; 1 μM (1000 nM), read-out: Dmax (G2019S LRRK2), time-dependent degradation",81%
same,Dmax,"G2019S LRRK2; 24 h, read-out: Dmax,24h (G2019S LRRK2)",58%
same,WT-pRab10 percent label at the end of the time curve,Rab10-pThr73; 1 µM,41%
same,EC50,"Rab10-pThr73; Mus musculus, 24 h, WT MEFs, read-out: EC50 for the dephosphorylation of Rab10 (WT-pRab10)",2270 nM
same,IC50,[1],1400 nM
"CNc1nc(Nc2ccc(C(=O)N3CCN(C[C@H]4CC[C@H](CSC(C)(C)[C@H](NC(=O)C5(F)CC5)C(=O)N5C[C@H](O)CC5C(=O)NCc5ccc(-c6scnc6C)cc5)CC4)CC3)cc2OC)ncc1Cl (stereo partly drawn) [XL01126, (2S,4R)-1-((R)-3-((((1R,4R)-4-((4-(4-((5-Chloro-4-(methylamino)pyrimidin-2-yl)amino)-3-methoxybenzoyl)piperazin-1-yl)methyl)cyclohexyl)methyl)thio)-2-(1-fluorocyclopropane-1-carboxamido)-3-methylbutanoyl)-4-hydroxy-N-(4-(4-methylthiazol-5-yl)benzyl)pyrrolidine-2-carboxamide]",DC50,WT LRRK2; 4 h,32 nM
same,DC50,G2019S LRRK2; 4 h,14 nM
same,WT-pRab10 percent label at the end of the time curve,Rab10-pThr73; 0.3 µM,94%
same,EC50,"Rab10-pThr73; Mus musculus, 4 h, WT MEFs, read-out: EC50 WT-pRab10",54 nM
same,cooperativity (α),[1],5.7
same,IC50,[1],350 nM
CNc1nc(Nc2ccc(C(=O)N3CCN(C[C@H]4CC[C@@H](CSC(C)(C)[C@H](NC(=O)C5(F)CC5)C(=O)N5C[C@H](O)CC5C(=O)NCc5ccc(-c6scnc6C)cc5)CC4)CC3)cc2OC)ncc1Cl (some centres unmarked) [XL01134],Dmax at 0.3 µM,"WT LRRK2; 300 nM, read-out: Dmax,WT, time-dependent degradation",75%
same,DC50,WT LRRK2; 4 h,32 nM
same,DC50,G2019S LRRK2; 4 h,7 nM
same,Dmax,"G2019S LRRK2; 4 h, read-out: Dmax,4h (G2019S LRRK2)",81%
same,WT-pRab10 percent label at the end of the time curve,Rab10-pThr73; 0.3 µM,88%
same,IC50,"Rab10-pThr73; Mus musculus, 4 h, WT MEFs, read-out: WT-pRab10 IC50",74 nM
same,cooperativity (α),[1],1.4
same,IC50,[1],790 nM
"CNc1nc(Nc2ccc(C(=O)N3CCN(C[C@H]4CC[C@H](CSC(C)(C)[C@H](NC(=O)C5(F)CC5)C(=O)N5C[C@@H](O)C[C@H]5C(=O)NCc5ccc(-c6scnc6C)cc5)CC4)CC3)cc2OC)ncc1Cl [cis-XL01126, (2S,4S)-1-((R)-3-((((1R,4R)-4-((4-(4-((5-Chloro-4-(methylamino)pyrimidin-2-yl)amino)-3-methoxybenzoyl)piperazin-1-yl)methyl)cyclohexyl)methyl)thio)-2-(1-fluorocyclopropane-1-carboxamido)-3-methylbutanoyl)-4-hydroxy-N-(4-(4-methylthiazol-5-yl)benzyl)pyrrolidine-2-carboxamide]",degradation of WT LRRK2 (in words),WT LRRK2; 4 h,no degradation
same,degradation of G2019S LRRK2 (in words),G2019S LRRK2; 4 h,no degradation
